# Results from PMC7589136, “The Human Digestive Tract Is Capable of Degrading Gluten from Birth” (International Journal of Molecular Sciences, 2020).
# Read-outs that look alike come from different tables or passages of the source. Ends that are not written are not given here.
# Legend:
# [1] = tested on: elastase 3B, elastase 2A, and carboxypeptidase A1; details: cited from earlier work
# [2] = Peptidase activity of desalted fecal protein extracts against 33-mer, 19-mer and 13-mer gliadin peptides (HPLC); type: in vitro ADME, human; details: for Degradation capacity of new-born fecal samples against peptide / Degradation of peptide by feces samples / Degradation of peptide by fecal protein extract / Degradation of peptide by meconium protein extract: 60 μM peptide, 37 °C; for Degradation capacity of new-born fecal samples against peptide: in some cases intermediate peptides observed; for Degradation of peptide by feces samples: up to 12 month-olds; for Degradation of peptide by fecal protein extract / Degradation of peptide by meconium protein extract: 0.8 mg/mL extract; for Degradation of peptide by fecal protein extract: HPLC UV 215 nm; for Degradation of peptide by meconium protein extract: reverse-phase HPLC, UV 215 nm
# Procedure: Step 1: Sample preparation: Fecal samples were homogenized by mechanical stirring (90 min) in 10 mM Tris-HCl, pH 7.5 (1:5 w/v) and centrifuged (3100× g, 30 min). The supernatant was re-centrifuged at 30,000× g for 20 min.
# Step 2: Ammonium sulphate fractionation: Each supernatant obtained from step 1 was precipitated with ammonium sulphate. The 80% ammonium sulphate precipitate (containing glutenase activity) was collected by centrifugation at 30,000× g, 20 min. The pellet was dissolved in 10 mM Tris-HCl (pH 7.5) and ammonium sulphate was eliminated by passing through a Sephadex G-25 (PD-10) column (GE Healthcare Live Sources, San Diego, CA USA) equilibrated with Tris-ClH (pH 5) in accordance with manufacturer’s indications.
# Peptides used in this paper were: 33-mer ([…]), 19-mer (LGQQQPFPPQQPYPQPQPF), and 13-mer (LGQQQPFPPQQPY) synthetized by Bionova Científica, S.L. (Madrid, Spain) with purification grade around 96%.
# We assayed 33-mer, 19-mer, and 13-mer hydrolysis as described previously, with modifications. Briefly, reaction mixtures containing 0.8 mg/mL of desalted protein extract (see step 2.2), 33-, 19-, or 13-mer peptide (60 μM) were incubated at 37 °C for 60 min and then stopped by boiling at 100 °C. 10-µL of each filtered aliquot was subjected to reverse-phase HPLC. The elution phases consisted of (A) MilliQ H2O containing 0.1% trifluoroacetic acid (TFA) (v/v) and (B) acetonitrile and 0.1% TFA (v/v). The eluate was monitored by measuring UV absorbance at 215 nm. Negative controls included runs with proteins denatured by boiling for 15 min, or 33-, 19-, and 13-mer peptides assayed without protein extract.
# [3] = elastase 3B, elastase 2A, and carboxypeptidase A1 from human feces
"Degradation capacity of new-born fecal samples against peptide ([2]; 60 min, HPLC)","Degradation of peptide by feces samples ([2]; 60 min, HPLC)","Degradation of peptide by fecal protein extract ([2]; volunteers >300 months old (the only group that did not degrade it completely), 60 min)","Hydrolytic activity of meconium samples against peptide ([2]; all 21 meconium samples, HPLC)","Degradation of peptide by meconium protein extract ([2]; desalted meconium protein extract of newborn volunteer 15, 60 min, intermediate peptides generated)","Degradation of peptide by meconium protein extract ([2]; desalted meconium protein extracts of newborn volunteers 3 and 9, 60 min)","Degradation of peptide by fecal protein extract ([2]; volunteers 0–2 months old, 60 min)","Degradation of peptide by fecal protein extract ([2]; volunteers 2–6 months old, 60 min)","Degradation of peptide by fecal protein extract ([2]; volunteers over 48 months old, 1 h)",Sequence,"Hydrolysis of peptide by gastrointestinal proteases [1, 3]",Hydrolysis of peptide by gastrointestinal proteases [1]
total degradation,able to degrade,not able to complete degrade,,,,,,,LGQQQPFPPQQPY [13-mer],fully,
total degradation,able to degrade,,showed hydrolytic activity,only partially degraded,completely degrade,completely degrade,completely degrade,unable to completely degrade,LQLQPFPQPQLPYPQPQLPYPQPQLPYPQPQPF [33-mer],partially,
,,,,,,,,,LGQQQPFPPQQPYPQPQPF [19-mer],,fully
